Experimental data from US5332574A, “Compounds produced by a strain of Streptomyces exfoliatus” (Bristol-Myers Squibb Company, priority 1993, dated 1994).
Converted amounts (≈) assume the structure as drawn. Where two headings read alike, the source gives them in different places.

Columns and labels:
Assay in all cases: MIC, serial two-fold agar dilution method
Assay type in all cases: cell-based
[1] = system: Klebsiella pneumoniae PCI 602
Method: (§1) The minimum inhibitory concentrations (MICs) of BU-4726G-A and BU-4726G-B were determined against various bacteria and fungi by the serial two-fold agar dilution method. Nutrient agar medium (Eiken) was used for bacteria and Sabouraud dextrose agar medium (Difco) for fungi.
(§2) Medium: Nutrient agar (Eiken, pH 7.0)
(§3) Inoculum size: 10^5 cells/ml
(§4) Inoculated conditions: 32° C., 20 hours

Salmonella typhi 901 = settings: Salmonella enterica, 20 h, pH 7
Method: as §1, §2, §3, §4

[2] = system: Staphylococcus aureus 209P
Method: as §1, §2, §3, §4

[3] = system: Pseudomonas aeruginosa A9843 A; settings: A9843A
Method: as §1, §2, §3, §4

Escherichia coli K12 = settings: Nutrient agar pH 7.0, 10^5 cells/ml, 32° C., 20 hours
Method: as §1, §2, §3, §4

[4] = system: Staphylococcus aureus A15036(MRSA)
Method: as §1, §2, §3, §4

[5] = system: Streptococcus faecalis A2808; settings: Enterococcus faecalis, A2808, 20 h, pH 7
Method: as §1, §2, §3, §4

[6] = system: Micrococcus luteus ATCC 9341
Method: as §1, §2, §3, §4

[7] = system: Staphylococcus aureus Smith
Method: as §1, §2, §3, §4

Escherichia coli Juhl = system: Escherichia coli Juhl
Method: as §1, §2, §3, §4

[8] = system: Bacillus subtilis ATCC 6633
Method: as §1, §2, §3, §4

[9] = system: Staphylococcus epidermidis 11-1168; settings: 111168, Nutrient agar pH 7.0, 10^5 cells/ml, 32° C., 20 hours
Method: as §1, §2, §3, §4

Row | Compound | MIC ([1]; Klebsiella pneumoniae, PCI602, 20 h, pH 7) | MIC (Salmonella typhi 901) | MIC ([2]; Staphylococcus aureus, 209P, 20 h, pH 7) | MIC ([3]; Pseudomonas aeruginosa, 20 h, pH 7) | MIC (Escherichia coli K12) | MIC ([4]; Staphylococcus aureus, MRSA, 20 h, pH 7) | MIC [5] | MIC ([6]; Micrococcus luteus, ATCC9341, 20 h, pH 7) | MIC ([7]; Staphylococcus aureus, 20 h, pH 7) | MIC (Escherichia coli Juhl; Escherichia coli, 20 h, pH 7) | MIC ([8]; Bacillus subtilis, ATCC6633, 20 h, pH 7) | MIC ([1]; PCI602, Klebsiella pneumoniae PCI 602, Nutrient agar pH 7.0, 10^5 cells/ml, 32° C., 20 hours, read-out: MIC) | MIC ([2]; Staphylococcus aureus 209P, Nutrient agar pH 7.0, 10^5 cells/ml, 32° C., 20 hours, read-out: MIC) | MIC ([3]; Pseudomonas aeruginosa A9843 A, Nutrient agar pH 7.0, 10^5 cells/ml, 32° C., 20 hours, read-out: MIC) | MIC ([4]; Staphylococcus aureus A15036(MRSA), Nutrient agar pH 7.0, 10^5 cells/ml, 32° C., 20 hours, read-out: MIC) | MIC [9] | MIC ([6]; ATCC9341, Micrococcus luteus ATCC 9341, Nutrient agar pH 7.0, 10^5 cells/ml, 32° C., 20 hours, read-out: MIC) | MIC ([7]; Staphylococcus aureus Smith, Nutrient agar pH 7.0, 10^5 cells/ml, 32° C., 20 hours, read-out: MIC) | MIC (Escherichia coli Juhl; Escherichia coli Juhl, Nutrient agar pH 7.0, 10^5 cells/ml, 32° C., 20 hours, read-out: MIC) | MIC ([8]; ATCC6633, Bacillus subtilis ATCC 6633, Nutrient agar pH 7.0, 10^5 cells/ml, 32° C., 20 hours, read-out: MIC)
1 | N[C@@H](C(=O)N[C@@H]1C(=O)N2C(C(=O)O)=C(Cl)CS[C@H]12)c1ccccc1 [Cefaclor] | 0.2 µg/mL (≈ 0.544 µM) | 0.2 µg/mL (≈ 0.544 µM) | 0.8 µg/mL (≈ 2.18 µM) | > 100 µg/mL | 0.4 µg/mL (≈ 1.09 µM) | 25 µg/mL (≈ 68 µM) | 25 µg/mL (≈ 68 µM) | < 0.05 µg/mL | 0.4 µg/mL (≈ 1.09 µM) | 0.4 µg/mL (≈ 1.09 µM) | < 0.05 µg/mL |  |  |  |  |  |  |  |  | 
2 | NCC[C@H](O)C(=O)N[C@@H]1C[C@H](N)[C@@H](O[C@H]2O[C@H](CN)[C@@H](O)[C@H](O)[C@H]2O)[C@H](O)[C@H]1O[C@H]1O[C@H](CO)[C@@H](O)[C@H](N)[C@H]1O [Amikacin] |  | 3.1 µg/mL (≈ 5.29 µM) |  |  | 0.8 µg/mL (≈ 1.37 µM) |  | 50 µg/mL (≈ 85.4 µM) |  |  |  |  | 0.4 µg/mL (≈ 0.683 µM) | 0.4 µg/mL (≈ 0.683 µM) | 3.1 µg/mL (≈ 5.29 µM) | 3.1 µg/mL (≈ 5.29 µM) | 50 µg/mL (≈ 85.4 µM) | 3.1 µg/mL (≈ 5.29 µM) | 1.6 µg/mL (≈ 2.73 µM) | 3.1 µg/mL (≈ 5.29 µM) | 0.4 µg/mL (≈ 0.683 µM)
